In US20230331762A1, “CRYSTALLINE FORM OF ASPACYTARABINE” (Biosight Ltd., priority 2020, published 2023):
Entries after “also recorded” stand apart in the source; their conditions may differ. Like-named read-outs stand apart in the source and are kept apart here.

Legend:
Type in all cases: physicochemical
[1] = Decomposition in solvents
Solubility in water = experiment: Solubility in water
[2] = Solubility in organic solvents
[3] = Thermodynamic stability of the solid form; conditions: crystalline vs amorphous

decomposition in DMF ([1]; strong polar aprotic solvent DMF)	decomposition in DMSO ([1]; strong polar aprotic solvent DMSO)	decomposition in water ([1]; water, rate is determined by heat and time)	solubility in water (Solubility in water)	solubility in water (Solubility in water; result in words)	solubility in DCM ([2]; DCM)	solubility in EtOH ([2]; EtOH)	solubility in MeOH ([2]; MeOH)	solubility in NMP ([2]; NMP)	solubility in THF ([2]; THF)	solubility in an amide solvent ([2]; amide solvent)	solubility in ethyl acetate ([2]; ethyl acetate)	solubility in toluene ([2]; toluene)	Structure (SMILES)	solubility in most organic solvents ([2]; most organic solvents)	thermodynamic stability [3]
decompose	decompose	decompose											Cl.N[C@@H](CC(=O)Nc1ccn([C@@H]2O[C@H](CO)[C@@H](O)[C@@H]2O)c(=O)n1)C(=O)O [aspacytarabine-HCl]		
			up to 2%	insoluble; also recorded: not soluble	not soluble	not soluble	not soluble	soluble	not soluble	soluble	not soluble	not soluble	N[C@@H](CC(=O)Nc1ccn([C@@H]2O[C@H](CO)[C@@H](O)[C@@H]2O)c(=O)n1)C(=O)O [Form B, (S)-2-amino-4-((1-((2R,3S,4S,5R)-3,4-dihydroxy-5-(hydroxymethyl)tetrahydrofuran-2-yl)-2-oxo-1,2-dihydropyrimidin-4-yl)amino)-4-oxobutanoic acid]	non soluble; also recorded: insoluble; also recorded: not soluble	thermodynamically more stable than the amorphous form
